# Laboratory results: patent publication US20250320204A1 (RIBOSCIENCE LLC, priority 2023, published 2025)
# Legend:
# HGS tumor model = test: Anti-tumor activity in HGS tumor model; format: in vivo; details: animals treated with 20/kg of compound, day 42 after inoculation
# From the text: […]
# ENPP1 [1] = molecular target: T1, ENPP1 (Homo sapiens, UniProt P22413); test: Measurement of 2′3′-cGAMP hydrolysis by ENPP1 (AMP-Glo); format: biochemical; details: 2′3′-cGAMP substrate 100 μM, KM 32 μM; Ki from IC50 by Cheng-Prusoff
# T1 sequence (P22413 1-925): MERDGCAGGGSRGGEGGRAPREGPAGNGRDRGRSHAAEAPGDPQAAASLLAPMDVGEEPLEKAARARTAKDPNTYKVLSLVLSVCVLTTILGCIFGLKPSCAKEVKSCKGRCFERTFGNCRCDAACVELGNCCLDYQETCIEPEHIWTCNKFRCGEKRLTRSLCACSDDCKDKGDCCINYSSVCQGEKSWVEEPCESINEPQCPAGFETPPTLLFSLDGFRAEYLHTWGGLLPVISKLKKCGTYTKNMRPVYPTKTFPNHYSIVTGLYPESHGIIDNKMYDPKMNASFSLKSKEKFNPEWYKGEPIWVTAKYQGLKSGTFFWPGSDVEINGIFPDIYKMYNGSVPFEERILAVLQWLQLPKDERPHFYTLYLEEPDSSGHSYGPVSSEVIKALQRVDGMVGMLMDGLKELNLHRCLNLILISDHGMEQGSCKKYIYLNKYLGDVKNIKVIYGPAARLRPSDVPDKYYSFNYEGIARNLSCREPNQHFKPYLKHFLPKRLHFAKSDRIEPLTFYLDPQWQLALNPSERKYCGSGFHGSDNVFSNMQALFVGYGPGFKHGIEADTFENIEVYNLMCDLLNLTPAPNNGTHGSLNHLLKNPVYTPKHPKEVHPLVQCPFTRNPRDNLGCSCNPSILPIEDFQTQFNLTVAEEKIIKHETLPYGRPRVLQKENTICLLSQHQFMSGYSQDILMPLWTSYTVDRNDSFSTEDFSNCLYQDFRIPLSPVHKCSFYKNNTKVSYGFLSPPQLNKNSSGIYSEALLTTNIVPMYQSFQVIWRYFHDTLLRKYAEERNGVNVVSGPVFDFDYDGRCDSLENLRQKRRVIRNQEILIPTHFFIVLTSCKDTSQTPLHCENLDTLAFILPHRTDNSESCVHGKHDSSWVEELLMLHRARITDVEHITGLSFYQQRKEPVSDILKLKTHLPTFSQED
# Procedure: Measurement of 2′3′-cGAMP hydrolysis by ENPP1
# The AMP-Glo assay kit from Promega (catalog number V5012) was used for measurement of 5′-AMP production.
# First, an ENPP1 and test compound incubation was set up in assay buffer (50 mM Tris -HCl, pH8.8, 250 mM NaCl, 0.1 mg/ml BSA) with following conditions: ENPP1 concentration: 1.25 nM; test compound concentration ranging from 137 pM to 100 nM. The incubation was carried out at 25° C. for 10 min.
# Second, after the 10-minute incubation of ENPP1 and test compound, prepare on a separate plate, 15 μl of the substrate 2′3′-cGAMP at 200 μM in assay buffer. Then, 15 μl of the ENPP1/Compound incubation was transferred to the 200 μM 2′3′-cGAMP solution to initiate the reaction. The 30 μl mixture was incubated for 30 min at 25° C. In all these assays a DMSO control without compound was included which gave the maximum 5′-AMP production (MAX RLU). After 30 min the reaction was stopped by heating at 90° C. for 3 min.
# Third, the Promega AMP-Glo kit was used to detect 5′-AMP production as a measurement of ENPP1 enzyme activity. Briefly, 10 μl of the above mentioned 30 μl total reaction per sample was transferred into 384 well white solid assay plate for measurement of 5′-AMP production. For each well, 10 μl of AMP-Glo Reagent I was added, mixed well, and incubated for 1 hour at 25° C. At this time AMP detection solution was prepared and 20 μl was added per well, and the resulting solution was incubated for 1 hr at 25° C. Duplicates were run for each inhibitor concentration. Luminescence signal (relative luminescence units, RLU) was recorded using a PerkinElmer 2300 Enspire multimode plate reader.
# The % inhibition was calculated using the following equation: % inhibition=(MAX RLU-sample RLU)/MAX RLU X 100%.
# IC50 values of compounds were determined by loading compound concentration data and percent inhibition values into GraphPad Prism (GraphPad Prism version 7.0 for
# Windows, GraphPad Software, La Jolla California USA, www.graphpad.com) and conducted a Sigmoidal variable slope nonlinear regression fitting.
# Ki values for each compound were calculated from the observed IC50 from GraphPad analysis using the Cheng-Prusoff equation: Ki=IC50/(1+ (S)/KM). (S) here is 100μ M and KM is 32 μm.
# ENPP1 [2] = molecular target: T1, ENPP1; test: Measurement of pNP-TMP hydrolysis by ENPP1; format: biochemical; details: pNP-TMP substrate 500 μM, Km 232 μM; Ki from IC50 by Cheng-Prusoff
# Procedure: Measurement of pNP-TMP hydrolysis by ENPP1
# p-Nitrophenyl thymidine 5′-monophosphate (pNP-TMP) is a synthesized substrate for ENPP1. The ENPP1 enzyme activity assay with pNP-TMP substrate was conducted as follows:
# First, in a 60 μl reaction, 7.5 ng purified ENPP1 was mixed with 1.2 μl compounds of Formula (I) (test compound) ranging from 13.7 nM to 10 μM. Incubation of ENPP1 with compounds was set at 25° C. for 10 min. Reactions with DMSO only (with ENPP1 but no compound) gave the fastest reaction (MAX Activity). For each compound dilution, wells with assay buffer (50 mM Tris -HCl, pH8.8, 250 mM NaCl, 0.1 mg/ml BSA) and test compounds but no ENPP1 were included as controls for the subtraction of test compound derived absorbance at 405 nm.
# Second, after 10 minutes incubation of ENPP1 and test compound, the assay was initiated by transferring 50 μl of the above mentioned ENPP1/test compound reaction into 50 μl of 1 mM pNP-TMP in assay buffer results in a 100 μl total reaction in non-binding surface clear bottom 96 well plates. Absorbance at 405 nm was recorded immediately in kinetic mode by PerkinElmer 2300 Enspire multimode plate reader.
# For each inhibitor, the specific ENPP1 activity was calculated using the following equation: ENPP1 activity (pmol/min/μg)=Adjusted Vmax (OD405 nm/min) X conversion factor (pmol/OD405 nm)/amount of enzyme (μg)
# Adjusted Vmax=V0X (Km+(S))/(S). In this assay, Km=232 μM, (S)=500 μM. Adjusted Vmax=1.464 X V0.
# V0=(OD405 nm with ENPP1-OD405 nm ENPP1 blank)/minutes. OD405 nm was plotted, with blank subtracted, against time (minutes), the initial linear rate is V0.
# The conversion factor (pmol/OD405 nm), was determined by plotting the amount of standard, 4-Nitrophenol (Sigma -Aldrich, Catalog #241326), against absorbance at 405 nm. The slope is the conversion factor. The percent ENPP1 activity for each sample was calculated using the following equation: […]
# To determine the IC50 for each compound, compound concentration values and percent enzyme activity values were inserted into GraphPad Prism (GraphPad Prism version 9.0 for Windows, GraphPad Software, La Jolla California USA, www.graphpad.com), and Prism's Transform analysis was used to convert the x-axis values (compound concentration) to logarithms. A sigmoidal variable slope nonlinear regression analysis was performed using the following equation: Y=Bottom+ (Top-Bottom)/(1+10^((Log IC50″X) *HillSlope)).
# Ki values for each compound were calculated from the observed IC50 from GraphPad analysis using the Cheng-Prusoff equation: Ki=IC50/(1+(S)/KM). (S) here is 500 μM and KM is determined to be 232 μM.
Structure (SMILES),tumor size (HGS tumor model) [mm3],Ki (ENPP1 [1]) [nM],Ki (ENPP1 [2]) [nM]
"C=CC(=O)N1CCN(CCCn2c(=O)c(-c3c(Cl)c(OC)cc(OC)c3Cl)cc3cnc(NC)nc32)CC1 [8-(3-(4-acryloylpiperazin-1-yl)propyl)-6-(2,6-dichloro-3,5-dimethoxyphenyl)-2-(methylamino)pyrido (2,3-d)pyrimidin-7 (8H)-one]",55,–,–
"COc1nccc2c(OCc3cccc([S@@](=N)(=O)C4CC4)c3)ccnc12 [Example 17b, (S)-Cyclopropyl(imino)(3-(((8-methoxy-1,7-naphthyridin-4-yl)oxy)methyl)phenyl)-lamba6-sulfanone]",–,< 1,< 10
"N=S(=O)(c1cc(F)cc(COc2ccnc3c(OCF)nccc23)c1)C1CC1 (centres unmarked) [Example 69, cyclopropyl(3-fluoro-5-(((8-(fluoromethoxy)-1,7-naphthyridin-4-yl)oxy)-methyl)phenyl) (imino)-lambda6-sulfanone]",–,< 1,< 10
